Measured values reported in article PMC6199744, “Development of Chemical Proteomics for the Folateome and Analysis of the Kinetoplastid Folateome” (ACS Infectious Diseases, 2018).

Tested on: L. major lysate proteins
Experiment: Multitargeted bead mixture chemoproteomics, single concentration competition, proteome-wide
Format: binding

Compound: NCCCNc1ccc(C(=O)NC(CCC(=O)O)C(=O)O)cc1 (stereo not drawn) [compound 7]
- fold change (protein LMJF.35.0420 40S RIBOSOMAL PROTEIN S3A, PUTATIVE, vehicle control = 1): 1.04
- fold change relative to vehicle control (protein LMJF.35.1220, SHORT CHAIN DEHYDROGENASE, PUTATIVE): 1.22
- fold change relative to vehicle control (protein LMJF.35.1380, MIT[…], BETA SUBUNIT, PUTATIVE): 1.09
- fold change vs vehicle control (protein LMJF.35.1830 HYPOTHETICAL PROTEIN, CONSERVED): 0.96
- fold change vs vehicle control (protein LMJF.35.3340 6-phosphogluconate dehydrogenase): 1.02
- fold change (protein LMJF.35.3700 GIM5A PROTEIN, PUTATIVE,GLYCOSOMAL MEMBRANE PROTEIN, vehicle control = 1): 0.89
- fold change vs vehicle control (protein LMJF.35.3760 60S RIBOSOMAL PROTEIN L27A/L29, PUTATIVE): 0.84
- fold change relative to vehicle control (protein LMJF.35.3840, […] 2 SUBUNIT, PUTATIVE): 1.34
- fold change vs vehicle control (protein LMJF.35.3860 T-COMPLEX PROTEIN 1, ETA SUBUNIT, PUTATIVE): 0.92
- fold change (protein LMJF.35.4420 MIT[…] TRANSPORTER, PUTATIVE, vehicle control = 1): 1.06
- fold change relative to vehicle control (protein LMJF.35.4880, HYPOTHETICAL PROTEIN, CONSERVED (TPR repeat, putative)): 0.98
- fold change relative to vehicle control (protein LMJF.35.5330, ISOPENTENYL-D[…]-ISOMERASE, PUTATIVE): 1.02
- fold change relative to vehicle control (protein LMJF.36.0070, STRESS-INDUCIBLE PROTEIN STI1 HOMOLOG): 1.21
- fold change (protein LMJF.36.0480 HY[…], CONSERVED, vehicle control = 1): 1.01
- fold change vs vehicle control (protein LMJF.36.0620 HY[…], CONSERVED): 1.07
- fold change vs vehicle control (protein LMJF.36.0930 40S RIBOSOMAL PROTEIN S18, PUTATIVE): 1.09
- fold change vs vehicle control (protein LMJF.36.0990 40S RIBOSOMAL PROTEIN S10, PUTATIVE): 1.03
- fold change (protein LMJF.36.1140 SHORT CHAIN 3-HYDROXYACYL-COA DEHYDROGENASE, PUTATIVE, vehicle control = 1): 0.85
- fold change relative to vehicle control (protein LMJF.36.1260, FRUCTOSE-1,6-BI[…]): 1.01
- fold change (protein LMJF.36.1340 N-ACETYLTRANSFERASE SUBUNIT NAT1, PUTATIVE, vehicle control = 1): 0.79
- fold change vs vehicle control (protein LMJF.36.1650 PROTEASOME BETA 5 SUBUNIT, PUTATIVE): 0.99
- fold change relative to vehicle control (protein LMJF.36.2380, STEROL 24-C-METHYLTRANSFERASE, PUTATIVE): 0.97
- fold change vs vehicle control (protein LMJF.36.2950 SUCCINYL-COA LIGASE GDP-FORMING] BETA-CHAIN, PUTATIVE): 1
- fold change vs vehicle control (protein LMJF.36.3210 14-3-3 PROTEIN-LIKE PROTEIN): 0.87
- fold change vs vehicle control (protein LMJF.36.3410 SHORT CHAIN DEHYDROGENASE-LIKE PROTEIN): 1.26
- fold change (protein LMJF.36.3460 HYPOTHETICAL PROTEIN, CONSERVED (NIPSNAP, putative), vehicle control = 1): 0.88
- fold change (protein LMJF.36.3580 HY[…], CONSERVED (Protein of unknown function (DUF2009), putative), vehicle control = 1): 1.12
- fold change (protein LMJF.36.3750 40S RIBOSOMAL PROTEIN S27-1, PUTATIVE, vehicle control = 1): 1.02
- fold change vs vehicle control (protein LMJF.36.5010 40S RIBOSOMAL PROTEIN SA, PUTATIVE): 1.12
- fold change vs vehicle control (protein LMJF.36.5130 HY[…], CONSERVED): 1.42
- fold change vs vehicle control (protein LMJF.36.5150 HYPOTHETICAL PROTEIN, CONSERVED): 0.97
- fold change relative to vehicle control (protein LMJF.36.5380, NADH DEHYDROGENASE, PUTATIVE): 1.14
- fold change vs vehicle control (protein LMJF.36.5390 PHOSPHORIBOSYLPYROPHOSPHATE SYNTHETASE, PUTATIVE): 0.89
- fold change vs vehicle control (protein LMJF.36.5620 ISOLEUCYL-TRNA SYNTHETASE, PUTATIVE): 1
- fold change (protein LMJF.36.6430 PROTEIN TRANSPORT PROTEIN SEC23-LIKE PROTEIN, vehicle control = 1): 0.89
- fold change vs vehicle control (protein LMJF.36.6760 HY[…], CONSERVED): 1.01
- fold change relative to vehicle control (protein LMJF.[…], MIT[…] BETA SUBUNIT, PUTATIVE): 0.91
- fold change relative to vehicle control (protein LMJF.[…], POLY(A) EXPORT PROTEIN, PUTATIVE): 1.14
- fold change (vs vehicle control, protein LINJ.20.0630 CYTIDINE TR[…], PUTATIVE,CTP SYNTHASE, PUTATIVE): 1.04
- fold change (vs vehicle control, protein LINJ.20.1390 COATOMER BETA SUBUNIT, PUTATIVE): 0.87
- fold change (vs vehicle control, protein LMJF.05.1140 VACUOLAR ATPASE SUBUNIT-LIKE PROTEIN): 0.93
- fold change (vs vehicle control, protein LMJF.07.1090 DELTA-5 FATTY ACID DESATURASE): 0.92
- fold change (vs vehicle control, protein LMJF.09.0220 HYPOTHETICAL PROTEIN, CONSERVED): 0.78
- fold change (vs vehicle control, protein LMJF.11.1030 HYPOTHETICAL PROTEIN, CONSERVED): 0.93
- fold change (vs vehicle control, protein LMJF.14.0640 FATTY ACID ELONGASE, PUTATIVE): 0.8
- fold change (vs vehicle control, protein LMJF.14.0705 FATTY ACID ELONGASE, PUTATIVE): 1.17
- fold change (vs vehicle control, protein LMJF.14.1120 KINESIN K39, PUTATIVE): 0.6
- fold change (vs vehicle control, protein LMJF.16.1610 PROHIBITIN): 1.07
- fold change (vs vehicle control, protein LMJF.17.0010 HYPOTHETICAL PROTEIN, CONSERVED): 0.87
- fold change (vs vehicle control, protein LMJF.18.1130 RAS-RELATED PROTEIN RAB-5, PUTATIVE): 0.68
- fold change (vs vehicle control, protein LMJF.19.1420 CYSTEINE PEPTIDASE A (CPA)): 0.9
- fold change (vs vehicle control, protein LMJF.21.0280 HY[…], CONSERVED): 0.94
- fold change (vs vehicle control, protein LMJF.22.1560 40S RIBOSOMAL PROTEIN L14, PUTATIVE): 0.7
- fold change (vs vehicle control, protein LMJF.23.1220 T-COMPLEX PROTEIN 1, GAMMA SUBUNIT, PUTATIVE): 1.02
- fold change (vs vehicle control, protein LMJF.24.0370 ASPARTATE AMINOTRANSFERASE, PUTATIVE): 1.01
- fold change (vs vehicle control, protein LMJF.25.1770 ENOYL-COA REDUCTASE, PUTATIVE): 1.02
- fold change (vs vehicle control, protein LMJF.26.0170 60S RIBOSOMAL PROTEIN L7, PUTATIVE): 0.9
- fold change (vs vehicle control, protein LMJF.26.1550 TRI[…] ALPHA SUBUNIT, MIT[…]-LIKE PROTEIN): 1.06
- fold change (vs vehicle control, protein LMJF.26.1610 PROLINE OXIDASE, MITOCHONDRIAL PRECURSOR-LIKE PROTEIN): 0.83
- fold change (vs vehicle control, protein LMJF.28.1950 X-PRO, DIPEPTIDYL-PEPTIDASE,SERINE PEPTIDASE, CLAN SC, FAMILY S15, PUTATIVE): 1.14
- fold change (vs vehicle control, protein LMJF.31.1070 BIOTIN/LIPOATE PROTEIN LIGASE-LIKE PROTEIN): 0.87
- fold change (vs vehicle control, protein LMJF.32.1370 HYPOTHETICAL PROTEIN, CONSERVED): 0.91
- fold change (vs vehicle control, protein LMJF.34.0490 IMPORTIN BETA-1 SUBUNIT, PUTATIVE): 0.78
- fold change (vs vehicle control, protein LMJF.34.4060 UBIQUITIN HYDROLASE, PUTATIVE,CYSTEINE PEPTIDASE, CLAN CA, FAMILY C19, PUTATIVE): 0.91
- fold change (vs vehicle control, protein LMJF.36.1600 PROTEASOME ALPHA 1 SUBUNIT, PUTATIVE): 0.95
- fold change (vs vehicle control, protein LMJF.[…] RIBOSOMAL PROTEIN S7, PUTATIVE): 1
